Assay results: patent US7423030B2, “1-amino-phthalazine derivatives, the preparation and the therapeutic use thereof” (Sanofi-Aventis, priority 2004, dated 2008)
Where a name gives a salt, the structure may show the parent alone.

COc1ccc(-c2nnc(NC3CCN(Cc4ccc5c(ccn5C)c4)CC3)c3cc(OC)ccc23)cc1 (as salt: salt) (hydrate or solvate) [Compound 100, 7-methoxy-4-(4-methoxyphenyl)-N-{1-[(1-methyl-1H-indol-5-yl)methyl]piperidin-4-yl}phthalazin-1-amine]
melting point: 161 °C

COc1ccc(-c2nnc(NC3CCN(Cc4cccc(C#N)c4)CC3)c3cc(OC)ccc23)cc1 (as salt: salt) (hydrate or solvate) [Compound 18, N-[1-(3-cyanophenylmethyl)-piperidin-4-yl]-7-methoxy-4-(4-methoxyphenyl)phthalazin-1-amine]
melting point: 115 °C

COc1ccc2c(-c3cccs3)nnc(NC3CCN(Cc4ccccc4)CC3)c2c1 (as salt: salt) (hydrate or solvate) [Compound 8, N-(1-benzylpiperidin-4-yl)-7-methoxy-4-(thiophen-2-yl)phthalazin-1-amine]
melting point: 115 °C

COc1ccc(OC)c(-c2nnc(NC3CCN(Cc4ccc5occc5c4)CC3)c3cc(OC)ccc23)c1.Cl.Cl (hydrate or solvate)
melting point: 250 °C

COc1ccc(-c2nnc(NC3CCN(Cc4ccc5oc(=O)ccc5c4)CC3)c3cc(OC)ccc23)cc1.Cl.Cl (hydrate or solvate)
melting point: 293 °C

COc1ccc(-c2nnc(NC3CCN(Cc4ccc(Cl)cc4)CC3)c3cc(OC)ccc23)cc1.Cl.Cl (hydrate or solvate)
melting point: 277 °C

COc1ccc(-c2nnc(NC3CCN(Cc4ccc5cc[nH]c5c4)CC3)c3cc(OC)ccc23)cc1 (as salt: salt) (hydrate or solvate) [Compound 129, N-[1-(1H-indol-6-ylmethyl)piperidin-4-yl]-7-methoxy-4-(4-methoxyphenyl)phthalazin-1-amine]
melting point: 278 °C

CCc1ccc(CN2CCC(Nc3nnc(-c4ccc(OC)cc4)c4ccc(OC)cc34)CC2)cc1.Cl.Cl (hydrate or solvate)
melting point: 245 °C

COc1ccc2c(COc3ccccc3)nnc(NC3CCN(Cc4ccc5ccccc5c4)CC3)c2c1.Cl.Cl (hydrate or solvate)
melting point: 239 °C

COc1ccc(-c2nnc(NC3CCN(Cc4ccc(OC)c(C)c4)CC3)c3cc(OC)ccc23)cc1 (as salt: salt) (hydrate or solvate) [Compound 89, 7-methoxy-N-[1-(4-methoxy-3-methylbenzyl)piperidin-4-yl]-4-(4-methoxyphenyl)phthalazin-1-amine]
melting point: 270 °C

COc1ccc2cnnc(NC3CCN(Cc4ccc5ccccc5c4)CC3)c2c1 (as salt: HCl) (hydrate or solvate) [Compound 70, 7-methoxy-N-[1-(2-naphthylmethyl)piperidin-4-yl]-phthalazin-1-amine]
melting point: 189 °C

COc1ccc(-c2nnc(NC3CC4CCC(C3)N4Cc3ccc4ccccc4c3)c3cc(OC)ccc23)cc1 (stereo not shown) (as salt: salt) (hydrate or solvate)
melting point: 176 °C

COCc1nnc(NC2CCN(Cc3ccc4ccccc4c3)CC2)c2cc(OC)ccc12.Cl (hydrate or solvate)
melting point: 176 °C

COc1ccc(-c2nnc(NC3CCN(Cc4ccc(CO)cc4)CC3)c3cc(OC)ccc23)cc1.Cl.Cl
melting point: 139 °C

COc1ccc(-c2nnc(NC3CCN(Cc4ccc5ccccc5c4)CC3)c3cc(Cl)ccc23)cc1.Cl.Cl (hydrate or solvate)
melting point: 230 °C

COc1ccc(CN2CCC(Nc3nnc(-c4ccc(OC)cc4)c4ccc(OC)cc34)CC2)cc1.Cl.Cl (hydrate or solvate)
melting point: 216 °C

COc1ccc(-c2nnc(NC3CCN(Cc4ccc5ccccc5c4)CC3)c3cc(C)ccc23)cc1 (as salt: salt) (hydrate or solvate) [Compound 9, 4-(4-methoxyphenyl)-7-methyl-N-[1-(naphthalen-2-ylmethyl)piperidin-4-yl]phthalazin-1-amine]
melting point: 198 °C

COc1ccc(-c2nnc(NC3CCN(Cc4ccc(NC(C)=O)cc4)CC3)c3cc(OC)ccc23)cc1.Cl.Cl (hydrate or solvate)
melting point: 255 °C

COc1ccc(-c2nnc(NC3CCN(Cc4ccc5occc5c4)CC3)c3cc(OC)ccc23)cc1 (as salt: salt) (hydrate or solvate) [Compound 26, N-[1-(1-benzofuran-5-ylmethyl)piperidin-4-yl]-7-methoxy-4-(4-methoxyphenyl)phthalazin-1-amine]
melting point: 160 °C

COc1ccc(-c2nnc(NC3CCN(Cc4ccc(CN)cc4)CC3)c3cc(OC)ccc23)cc1.Cl.Cl.Cl (hydrate or solvate)
melting point: 284 °C

COc1ccc(-c2nnc(NC3CCN(Cc4ccc5[nH]ccc5c4)CC3)c3cc(OC)ccc23)cc1 (as salt: salt) (hydrate or solvate) [Compound 87, N-[1-(1H-indol-5-ylmethyl)piperidin-4-yl]-7-methoxy-4-(4-methoxyphenyl)phthalazin-1-amine]
melting point: 281 °C

COc1ccc2c(-c3ccc(F)cc3)nnc(NC3CCN(Cc4ccc5ccccc5c4)CC3)c2c1 (as salt: salt) (hydrate or solvate) [Compound 82, 4-(4-Fluorophenyl)-7-methoxy-N-[1-(naphthalen-2-ylmethyl)piperidin-4-yl]phthalazin-1-amine]
melting point: 175 °C

COc1ccc2c(COCc3ccccc3)nnc(NC3CCN(Cc4ccc5ccccc5c4)CC3)c2c1.Cl.Cl
melting point: 284 °C

CCCCc1nnc(NC2CCN(Cc3ccc4ccccc4c3)CC2)c2cc(OC)ccc12 (as salt: salt) (hydrate or solvate) [Compound 67, 4-Butyl-7-methoxy-N-[1-(naphthalen-2-ylmethyl)piperidin-4-yl]phthalazin-1-amine]
melting point: 101 °C

COc1ccc(-c2nnc(NC3CCN(Cc4ccccc4)CC3)c3cc(OC)cc(OC)c23)cc1 [Compound 11, N-(1-benzylpiperidin-4-yl)-5,7-dimethoxy-4-(4-methoxyphenyl)phthalazin-1-amine]
melting point: 168 °C

COc1ccc2c(-c3cccnc3)nnc(NC3CCN(Cc4ccc5ccccc5c4)CC3)c2c1.Cl.Cl.Cl (hydrate or solvate)
melting point: 225 °C

COc1ccc(OC)c(-c2nnc(NC3CCN(Cc4ccc5ncsc5c4)CC3)c3cc(OC)ccc23)c1 (as salt: salt) (hydrate or solvate) [Compound 135, N-[1-(1,3-benzothiazol-6-ylmethyl)piperidin-4-yl]-4-(2,5-dimethoxyphenyl)-7-methoxyphthalazin-1-amine]
melting point: 193 °C

COc1ccc(-c2nnc(NC3CCN(Cc4ccc(CN(C)C)cc4)CC3)c3cc(OC)ccc23)cc1.Cl.Cl.Cl (hydrate or solvate)
melting point: 218 °C

COc1ccc2c(-c3ccc(OC)c(OC)c3)nnc(NC3CCN(Cc4ccc5ccccc5c4)CC3)c2c1 (as salt: salt) (hydrate or solvate) [Compound 10, 4-(3,4-Dimethoxyphenyl)-7-methoxy-N-[1-(naphthalen-2-ylmethyl)piperidin-4-yl]phthalazin-1-amine]
melting point: 131 °C

COc1ccc(-c2nnc(NC3CCN(Cc4ccc(CO)cc4)CC3)c3cc(OC)ccc23)cc1.Cl.Cl (hydrate or solvate)
melting point: 294 °C

COc1ccc2c(-c3ccc(C)c(C)c3)nnc(NC3CCN(Cc4ccc5ccccc5c4)CC3)c2c1.Cl.Cl (hydrate or solvate)
melting point: 210 °C

COc1ccc2c(C)nnc(NC3CCN(Cc4ccc5ccccc5c4)CC3)c2c1 [Compound 95, 7-Methoxy-4-methyl-N-[1-(naphthalen-2-ylmethyl)piperidin-4-yl]phthalazin-1-amine]
melting point: 188 °C

CCc1nnc(NC2CCN(Cc3ccc4ccccc4c3)CC2)c2cc(OC)cc(OC)c12 (as salt: salt) (hydrate or solvate) [Compound 23, 5,7-Dimethoxy-4-ethyl-N-[1-(naphthalen-2-ylmethyl)piperidin-4-yl]phthalazin-1-amine]
melting point: 250 °C

COc1ccc2c(-c3ccccc3OC)nnc(NC3CCN(Cc4ccc5ccccc5c4)CC3)c2c1 (as salt: salt) (hydrate or solvate) [Compound 2, 7-methoxy-4-(2-methoxyphenyl)-N-[1-(naphthalen-2-ylmethyl)piperidin-4-yl]phthalazin-1-amine]
melting point: 158 °C

COCc1nnc(NC2CCN(Cc3ccc4c(c3)OCO4)CC2)c2cc(OC)ccc12.Cl.Cl (hydrate or solvate)
melting point: 284 °C

COc1ccc(-c2nnc(NC3CCN(Cc4ccc5ccccc5c4)CC3)c3cc(OC)cc(OC)c23)cc1.Cl.Cl (hydrate or solvate)
melting point: 212 °C

COc1cc(OC)cc(-c2nnc(NC3CCN(Cc4ccc5ccccc5c4)CC3)c3cc(OC)ccc23)c1.Cl.Cl (hydrate or solvate)
melting point: 240 °C

Fc1ccc(-c2nnc(NC3CCN(Cc4ccc5ccccc5c4)CC3)c3cc(F)ccc23)cc1 [Compound 106, 7-Fluoro-4-(4-fluorophenyl)-N-[1-(naphthalen-2-ylmethyl)piperidin-4-yl]phthalazin-1-amine]
melting point: 207 °C

COC(=O)c1ccc(CN2CCC(Nc3nnc(-c4ccc(OC)cc4)c4ccc(OC)cc34)CC2)cc1 (as salt: HCl) (hydrate or solvate) [Compound 107, methyl {4-[(4-{[7-methoxy-4-(4-methoxyphenyl)phthalazin-1-yl]amino}piperidin-1-yl)methyl]phenyl}carboxylate]
melting point: 241 °C

COc1cc(OC)c2c(Cc3ccccc3)nnc(NC3CCN(Cc4ccc5ccccc5c4)CC3)c2c1 [Compound 22, 4-Benzyl-5,7-dimethoxy-N-[1-(naphthalen-2-ylmethyl)piperidin-4-yl]phthalazin-1-amine]
melting point: 163 °C

COc1ccc2c(-c3ccc(Br)cc3)nnc(NC3CCN(Cc4ccc5ccccc5c4)CC3)c2c1.Cl.Cl (hydrate or solvate)
melting point: 246 °C

COc1ccc(-c2nnc(NC3CCN(Cc4ccc(C)c(F)c4)CC3)c3cc(OC)ccc23)cc1 [Compound 74, N-[1-(3-fluoro-4-methylbenzyl)piperidin-4-yl]-7-methoxy-4-(4-methoxyphenyl)phthalazin-1-amine]
melting point: 210 °C

COc1ccc(-c2nnc(NC3CCN(Cc4ccc(NC=O)cc4)CC3)c3cc(OC)ccc23)cc1.Cl.Cl (hydrate or solvate)
melting point: 293 °C
